Patent publication US20260008775A1, “AZOLE MODULATORS OF CHOLESTEROL BIOSYNTHESIS AND THEIR USE FOR PROMOTING REMYELINATION” (GENENTECH, INC., priority 2022, published 2026)

Legend:
[1] = biological target: human emopamil binding protein and human 7-dehydrocholesterol reductase (hEBP-DHCR7) (Homo sapiens (Human), UniProt Q15125); test: hEBP-DHCR7 radioligand binding assay (filter binding, membranes of co-expressing HEK293 cells); settings: competition with [3H] radioligand, 8 doses 0.06 to 5000 nM, Ki calculated from IC50
In short: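 Membranes from HEK293 cells transiently co-expressing hEBP and DHCR7 (10 μg/well) were incubated for 3 h at 22 °C with tritiated spiro-sulfone radioligand (added at 25 nM) and compound at 1 μM or 0.06–5000 nM. Filtration and scintillation counting followed. Inhibition was normalised to 5 μM unlabelled ligand and DMSO, and Ki was derived as IC50/(1+[L]/Kd).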

[2] = test system: zymostenol accumulation (EBP) in EpiSC-derived OPCs; test: GC/MS-based sterol profiling, zymostenol accumulation in EpiSC-derived OPCs; format: cell-based, mouse; settings: Mus musculus, 24 h, EpiSC-derived OPCs, 24 hr, 8 doses from 0.15 nM to 333 nM; read-out: Mouse Zymostenol GCMS EC50
In short: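 Mouse epiblast stem cell-derived OPCs plated at 100,000 cells/well in growth-factor-free N2B27 and treated 24 h. Sterols extracted by modified Folch wash, silylated with BSTFA, and quantified by electron-impact GC/MS against cholesterol-d7 (zymostenol ion 458). Zymostenol normalised to 24 h 100 nM positive-control reference.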

EpiSC-derived OPCs = test: In vitro phenotypic screening of OPCs, MBP high-content imaging (percentage of oligodendrocytes); format: cell-based, mouse; settings: Mus musculus, 72 h, 3 days, MBP stain, dose-response 0.5 nM to 1000 nM; read-out: OPC EC50
In short: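 Mouse epiblast stem cell-derived OPCs were plated without growth factors and given 8-point doses (1000 nM to 0.5 nM, 0.1% DMSO final) for 3 days at 37 °C. MBP/DAPI immunostaining and high-content imaging gave the percentage of oligodendrocytes. EC50 came from a Hill-equation fit.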

Chain of human emopamil binding protein and human 7-dehydrocholesterol reductase (hEBP-DHCR7) (Q15125 whole entry): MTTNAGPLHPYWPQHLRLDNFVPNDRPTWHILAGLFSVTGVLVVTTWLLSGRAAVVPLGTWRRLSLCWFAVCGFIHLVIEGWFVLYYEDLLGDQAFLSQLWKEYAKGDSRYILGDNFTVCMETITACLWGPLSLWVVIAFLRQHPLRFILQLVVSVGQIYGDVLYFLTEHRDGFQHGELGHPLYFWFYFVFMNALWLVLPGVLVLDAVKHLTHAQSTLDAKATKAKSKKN

CC(C)n1nc([C@H]2CC[C@H](C(F)(F)F)CC2)nc1[C@H]1[C@@H]2C[C@@H](N3CCOC[C@H]3C)C[C@@H]21 (single isomer, unassigned) [Compound 165*]
Ki [1]: 40.4 nM | EC50 [2]: 4.55 nM | EC50 (EpiSC-derived OPCs): 35 nM

COCCN1CCN([C@@H]2CC[C@H](c3cc(-c4ccc(C(F)(F)F)nc4)nn3C(C)C)C2)CC1 (single isomer, unassigned) [93*]
Ki [1]: 19.7 nM | EC50 [2]: 22.5 nM | EC50 (EpiSC-derived OPCs): 125 nM

CC(C)n1nc(-c2ccnc(C(F)(F)F)n2)cc1[C@H]1[C@@H]2C[C@@H](N3CCOCC3)C[C@@H]21 [Compound 98, 4-((1R,3s,5S,6r)-6-(1-Isopropyl-3-(2-(trifluoromethyl)pyrimidin-4-yl)-1H-pyrazol-5-yl)bicyclo[3.1.0]hexan-3-yl)morpholine]
Ki [1]: 11.7 nM | EC50 [2]: 4.86 nM | EC50 (EpiSC-derived OPCs): 30.8 nM

CC(C)n1nc(-c2cncc(F)c2)cc1[C@H]1[C@@H]2C[C@H](N3CCCOCC3)C[C@@H]21 [Compound 187*, 4-((1R,3r,5S,6r)-6-(3-(5-Fluoropyridin-3-yl)-1-isopropyl-1H-pyrazol-5-yl)bicyclo[3.1.0]hexan-3-yl)-1,4-oxazepane]
Ki [1]: 20.3 nM | EC50 [2]: 7.75 nM | EC50 (EpiSC-derived OPCs): 37.3 nM

CC(C)n1nc(-c2cncc(OC(F)F)c2)nc1[C@H]1[C@@H]2C[C@@H](N3CCCOCC3)C[C@@H]21 [Compound 68, 4-((1R,3s,5S,6r)-6-(3-(5-(Difluoromethoxy)pyridin-3-yl)-1-isopropyl-1H-1,2,4-triazol-5-yl)bicyclo[3.1.0]hexan-3-yl)-1,4-oxazepane]
Ki [1]: 119 nM | EC50 [2]: 146 nM | EC50 (EpiSC-derived OPCs): 417 nM

CC(C)n1nc(-c2cccc(OC(F)F)c2)nc1[C@H]1[C@@H]2C[C@H](N3CCOC[C@H]3C)C[C@@H]21 [Compound 76, (R)-4-((1R,3r,5S,6R)-6-(3-(3-(Difluoromethoxy)phenyl)-1-isopropyl-1H-1,2,4-triazol-5-yl)bicyclo[3.1.0]hexan-3-yl)-3-methylmorpholine]
Ki [1]: 15 nM | EC50 [2]: 1.18 nM | EC50 (EpiSC-derived OPCs): 1.56 nM

CC(C)n1nc(-c2cncc(C(F)(F)F)c2)cc1[C@H]1CC[C@H](N2CCCOCC2)C1 (single isomer, unassigned) [63*]
Ki [1]: 14.4 nM | EC50 [2]: 3.49 nM | EC50 (EpiSC-derived OPCs): 21.8 nM

CC(C)n1nc(-c2cccc(C(F)(F)F)c2)nc1[C@H]1[C@@H]2C[C@@H](N3CCOC[C@@H]3C)C[C@@H]21 [Compound 66, (S)-4-((1R,3r,5S,6S)-6-(1-Isopropyl-3-(3-(trifluoromethyl)phenyl)-1H-1,2,4-triazol-5-yl)bicyclo[3.1.0]hexan-3-yl)-3-methylmorpholin]
Ki [1]: 50.2 nM | EC50 [2]: 2.84 nM | EC50 (EpiSC-derived OPCs): 14.9 nM

CC(C)n1nc(-c2cncc(C(F)(F)F)c2)cc1[C@H]1[C@@H]2C[C@H](N3CCOC[C@@H]3C)C[C@@H]21 (single isomer, unassigned) [45*]
Ki [1]: 53 nM | EC50 [2]: 11 nM | EC50 (EpiSC-derived OPCs): 48 nM

CC(C)n1nc(-c2cccc(C(F)(F)F)c2)nc1[C@@H]1CC[C@@H](N2CCOCC2)C1 (single isomer, unassigned) [21*]
Ki [1]: 27.1 nM | EC50 [2]: 7.71 nM | EC50 (EpiSC-derived OPCs): 51.7 nM

CC(C)n1nc(-c2cccc(C(F)(F)F)n2)nc1[C@H]1[C@@H]2C[C@H](N3CCOC[C@H]3C)C[C@@H]21 [Compound 73, (R)-4-((1R,3r,5S,6R)-6-(1-isopropyl-3-(6-(trifluoromethyl)pyridin-2-yl)-1H-1,2,4-triazol-5-yl)bicyclo[3.1.0]hexan-3-yl)-3-methylmorpholine]
Ki [1]: 109 nM | EC50 [2]: 3.95 nM | EC50 (EpiSC-derived OPCs): 8.41 nM

CC(C)n1nc(-c2ccccc2F)cc1[C@H]1[C@@H]2C[C@H](N3CCCOCC3)C[C@@H]21 [Compound 193*, 4-((1R,3r,5S,6r)-6-(3-(2-Fluorophenyl)-1-isopropyl-1H-pyrazol-5-yl)bicyclo[3.1.0]hexan-3-yl)-1,4-oxazepane]
Ki [1]: 7.29 nM | EC50 [2]: 5.41 nM | EC50 (EpiSC-derived OPCs): 7.12 nM

CC(C)n1nc(-c2cncc(C(F)(F)F)c2)nc1[C@H]1[C@@H]2C[C@H](N3CCOC[C@H]3C)C[C@@H]21 [Compound 120, (R)-4-((1R,3r,5S,6R)-6-(1-Isopropyl-3-(5-(trifluoromethyl)pyridin-3-yl)-1H-1,2,4-triazol-5-yl)bicyclo[3.1.0]hexan-3-yl)-3-methylmorpholine]
Ki [1]: 16 nM | EC50 [2]: 1.25 nM | EC50 (EpiSC-derived OPCs): 2.8 nM

CC(C)n1nc(-c2ccc(C(F)(F)F)cc2)cc1[C@H]1[C@@H]2C[C@@H](N3CCCOCC3)C[C@@H]21 [Compound 182*, 4-((1R,3s,5S,6r)-6-(1-isopropyl-3-(4-(trifluoromethyl)phenyl)-1H-pyrazol-5-yl)bicyclo[3.1.0]hexan-3-yl)-1,4-oxazepane]
Ki [1]: 15.8 nM | EC50 [2]: 18.5 nM | EC50 (EpiSC-derived OPCs): 36.9 nM

CC(C)n1nc(-c2cncc(C(F)(F)F)c2)cc1[C@H]1[C@@H]2C[C@H](N3CCCOCC3)C[C@@H]21 [Compound 29, 4-((1R,3s,5S,6r)-6-(1-Isopropyl-3-(5-(trifluoromethyl)pyridin-3-yl)-1H-pyrazol-5-yl)bicyclo [3.1.0]hexan-3-yl)-1,4-oxazepane]
Ki [1]: 20 nM | EC50 [2]: 3.19 nM | EC50 (EpiSC-derived OPCs): 19.8 nM

CC(C)n1nc(-c2ccnc(C(F)(F)F)n2)cc1[C@H]1[C@@H]2C[C@H](N3CCOC[C@H]3C)C[C@@H]21 [Compound 103, (R)-4-((1R,3r,5S,6S)-6-(1-Isopropyl-3-(2-(trifluoromethyl)pyrimidin-4-yl)-1H-pyrazol-5-yl)bicyclo[3.1.0]hexan-3-yl)-3-methylmorpholine]
Ki [1]: 36.1 nM | EC50 [2]: 9.34 nM | EC50 (EpiSC-derived OPCs): 93.4 nM

CCn1nc(-c2cncc(C(F)(F)F)c2)cc1[C@H]1[C@@H]2C[C@H](N3CCCOCC3)C[C@@H]21 [Compound 54, 4-((1R,3r,5S,6r)-6-(1-ethyl-3-(5-(trifluoromethyl)pyridin-3-yl)-1H-pyrazol-5-yl)bicyclo[3.1.0]hexan-3-yl)-1,4-oxazepane]
Ki [1]: 10.6 nM | EC50 [2]: 3 nM | EC50 (EpiSC-derived OPCs): 12.4 nM

CC(C)n1nc(-c2cccc(C(F)(F)F)n2)cc1[C@H]1[C@@H]2C[C@@H](N3CCOCC3)C[C@@H]21 [Compound 31, 4-((1R,3s,5S,6r)-6-(1-Isopropyl-3-(6-(trifluoromethyl)pyridin-2-yl)-1H-pyrazol-5-yl)bicyclo[3.1.0]hexan-3-yl)morpholine]
Ki [1]: 100 nM | EC50 [2]: 241 nM | EC50 (EpiSC-derived OPCs): 643 nM

CC(C)n1nc(-c2cncc(C(F)(F)F)c2)nc1[C@H]1[C@@H]2C[C@H](N3CCO[C@H](C)C3)C[C@@H]21 [Compound 163, (R)-4-((1R,3r,5S,6R)-6-(1-Isopropyl-3-(5-(trifluoromethyl)pyridin-3-yl)-1H-1,2,4-triazol-5-yl)bicyclo[3.1.0]hexan-3-yl)-2-methylmorpholine]
Ki [1]: 32.8 nM | EC50 [2]: 4.36 nM | EC50 (EpiSC-derived OPCs): 32.8 nM

CC[C@@H]1CN([C@@H]2CC[C@H](c3nc(-c4ccc(C(F)(F)F)nc4)nn3C(C)C)C2)CCO1 [Compound 127, (R)-2-Ethyl-4-((1R,3S)-3-(1-isopropyl-3-(6-(trifluoromethyl)pyridin-3-yl)-1H-1,2,4-triazol-5-yl)cyclopentyl)morpholine]
Ki [1]: 57.1 nM | EC50 [2]: 1.32 nM | EC50 (EpiSC-derived OPCs): 6 nM

CC(C)n1nc(-c2cccc(C(F)(F)F)c2)nc1[C@@H]1CC[C@H](N2CCOCC2)C1 (single isomer, unassigned) [22*]
Ki [1]: 10.9 nM | EC50 [2]: 1.33 nM | EC50 (EpiSC-derived OPCs): 6.73 nM

CC(C)n1nc(-c2cncc(Cl)c2)cc1[C@H]1[C@@H]2C[C@H](N3CCCOCC3)C[C@@H]21 [Compound 178*, 4-((1R,3r,5S,6r)-6-(3-(5-chloropyridin-3-yl)-1-isopropyl-1H-pyrazol-5-yl)bicyclo[3.1.0]hexan-3-yl)-1,4-oxazepane]
Ki [1]: 35.8 nM | EC50 [2]: 65.6 nM | EC50 (EpiSC-derived OPCs): 555 nM

CC(C)n1nc(-c2cncc(C(F)(F)F)c2)nc1[C@H]1[C@@H]2C[C@@H](N3CCCOCC3)C[C@@H]21 [Compound 52, 4-((1R,3s,5S,6r)-6-(1-Isopropyl-3-(5-(trifluoromethyl)pyridin-3-yl)-1H-1,2,4-triazol-5-yl)bicyclo[3.1.0]hexan-3-yl)-1,4-oxazepane]
Ki [1]: 18.1 nM | EC50 [2]: 3.1 nM | EC50 (EpiSC-derived OPCs): 6.29 nM

CC(C)n1nc(-c2cncc(Cl)c2)cc1[C@H]1[C@@H]2C[C@@H](N3CCCOCC3)C[C@@H]21 [Compound 177*, 4-((1R,3s,5S,6r)-6-(3-(5-Chloropyridin-3-yl)-1-isopropyl-1H-pyrazol-5-yl)bicyclo[3.1.0]hexan-3-yl)-1,4-oxazepane]
Ki [1]: 15.5 nM | EC50 [2]: 4.16 nM | EC50 (EpiSC-derived OPCs): 9.82 nM

CC(C)n1nc(-c2ccc(C(F)(F)F)nc2)cc1[C@@H]1CC[C@H](N2CCN(CCO)CC2)C1 (single isomer, unassigned) [87*]
Ki [1]: 26.2 nM | EC50 [2]: 16.4 nM | EC50 (EpiSC-derived OPCs): 48.9 nM

CC(C)n1nc(-c2cncc(C(F)(F)F)c2)nc1[C@H]1CC[C@@H](N2CCOCC2)C1 (single isomer, unassigned) [Compound 118*]
Ki [1]: 32.2 nM | EC50 [2]: 11.5 nM | EC50 (EpiSC-derived OPCs): 93.2 nM
